Square brackets hold non-standard residues; d marks the D form. Ends that are not written are not given here. Peptide text beside a SMILES is read from it. hArg = N=C(N)NCCCC[C@H](N)C(=O)O; Aib = CC(C)(N)C(=O)O

One assay addresses T1, PTHR16E (Homo sapiens, UniProt Q03431, A83I/D81R/G76A/K80A/K82Q/P78E/R79L/S71Q/S73D/S75E/T74Q).
T1 construct: expressed in transfected cells
T1 sequence (Q03431 27-593 S71Q/S73D/T74Q/S75E/G76A/P78E/R79L/K80A/D81R/K82Q/A83I): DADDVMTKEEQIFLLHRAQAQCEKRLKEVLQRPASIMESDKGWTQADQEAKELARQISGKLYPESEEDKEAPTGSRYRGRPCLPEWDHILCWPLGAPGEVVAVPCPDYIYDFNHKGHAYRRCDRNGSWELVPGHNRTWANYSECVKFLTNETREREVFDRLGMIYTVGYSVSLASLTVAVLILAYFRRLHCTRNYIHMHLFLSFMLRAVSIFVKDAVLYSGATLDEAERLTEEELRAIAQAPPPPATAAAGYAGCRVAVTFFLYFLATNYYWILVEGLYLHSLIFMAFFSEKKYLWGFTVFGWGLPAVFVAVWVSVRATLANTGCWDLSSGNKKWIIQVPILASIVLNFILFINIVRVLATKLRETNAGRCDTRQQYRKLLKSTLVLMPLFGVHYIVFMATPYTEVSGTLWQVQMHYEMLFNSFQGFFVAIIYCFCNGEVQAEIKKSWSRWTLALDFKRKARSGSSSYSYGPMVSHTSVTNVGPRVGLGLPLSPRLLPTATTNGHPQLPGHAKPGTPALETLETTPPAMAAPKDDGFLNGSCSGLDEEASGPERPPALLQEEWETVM
The experiment in a line: cAMP induction in HEK293 cells stably expressing PTHR16E (6E/Ubc6e epitope tag in exon 2 segment). Type of assay: cell-based. On the procedure: (§1) Measurement of cAMP response. These assays were performed as previously described^27. Briefly, HEK-293-derived cell lines that stably express the Glosensor cAMP reporter (Promega Corp.)^30 and PTHR1, a PTHR1 variant, or PTHR2 were seeded into white sided 96 well plates (50,000 cells/well) and grown to confluency. Confluent monolayers of cells were pre-incubated with CO2 independent medium containing D-luciferin (0.5 mM) at 37° C. until a stable baseline level of luminescence was established (20 min). Varying concentrations of ligands were then added, and the time course of luminescence response was recorded using BioTek plate reader.
(§2) Data calculations. Data were processed using Microsoft Excel and GraphPad Prism 6. Data from cAMP dose-response assays were analyzed using a sigmoidal dose-response model with variable slope. Data sets were statistically compared by using Student's t test (two-tailed) assuming unequal variances for the two sets.
(§3) The portion of PTHR1 encoded by exon 2 is not resolved in structural studies (FIG. 12—Panel d)^13, 14, 17, is not important for ligand binding^18, and in past work has been targeted as a site for receptor modification^18, 19. A construct was generated that encodes a PTHR1 variant in which a 14-residue fragment from exon 2 was replaced with a 14-mer epitope tag from the intracellular protein UBC6e (PTHR16E, FIG. 12—Panel d)^20. A receptor construct in which a pH-sensitive green fluorescent protein variant (GFP) was inserted into the portion of the receptor encoded by exon 2 (PTHR1GFP in FIGS. 17A to 17C)^19. Another version of PTHR1 in which yellow fluorescent protein (YFP) replaces the entire extracellular domain (PTHR1YFPΔECD, FIG. 12—Panel e)^21, was also used.

Another assay deals with T2, human PTHR1 (Homo sapiens, UniProt Q03431).
T2 construct: expressed in transfected cells
T2 sequence (Q03431 27-593): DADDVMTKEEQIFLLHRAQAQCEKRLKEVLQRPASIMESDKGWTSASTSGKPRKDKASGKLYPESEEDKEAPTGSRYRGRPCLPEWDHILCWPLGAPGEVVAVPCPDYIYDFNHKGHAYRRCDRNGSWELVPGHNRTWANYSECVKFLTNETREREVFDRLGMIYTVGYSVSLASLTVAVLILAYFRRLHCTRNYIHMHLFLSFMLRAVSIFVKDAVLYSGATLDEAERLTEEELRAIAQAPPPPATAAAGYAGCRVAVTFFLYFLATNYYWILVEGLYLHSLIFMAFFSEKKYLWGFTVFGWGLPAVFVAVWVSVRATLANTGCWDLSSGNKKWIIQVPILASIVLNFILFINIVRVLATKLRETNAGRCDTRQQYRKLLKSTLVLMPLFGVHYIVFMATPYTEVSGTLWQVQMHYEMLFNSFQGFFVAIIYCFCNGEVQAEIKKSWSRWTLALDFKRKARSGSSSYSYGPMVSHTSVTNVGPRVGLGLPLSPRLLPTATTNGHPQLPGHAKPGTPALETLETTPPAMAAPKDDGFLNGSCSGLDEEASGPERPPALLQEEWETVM
The experiment in a line: cAMP induction (cAMP-responsive luciferase) in HEK293 cells stably expressing human PTHR1. It counts as cell-based. The procedure: (§4) Measurement of cAMP response. These assays were performed as previously described^27. […] Confluent monolayers of cells were pre-incubated with CO2 independent medium containing D-luciferin (0.5 mM) at 37° C. until a stable baseline level of luminescence was established (20 min). Varying concentrations of ligands were then added, and the time course of luminescence response was recorded using BioTek plate reader.
as §2

Assay [1] deals with T3, PTHR2 (Homo sapiens, UniProt P49190).
T3 construct: expressed in transfected cells
Put plainly: cAMP induction in HEK293 cells stably expressing human PTHR2. Type of assay: cell-based. The procedure: as §4, §2

Another assay has as its system PTHR1YFPΔECD. Put plainly: cAMP induction in HEK293 cells stably expressing PTHR1YFPΔECD (YFP replaces extracellular domain). It counts as cell-based, human. The procedure: as §1, §2, §3
The next assay relates to PTHR1GFP. Put plainly: cAMP induction in HEK293 cells stably expressing PTHR1GFP. Type of assay: cell-based, human. On the procedure:
The GFP-PTHR1 fusion was stably expressed in cells that respond to receptor engagement by activation of a cAMP-sensitive version of luciferase. Exposure of these transfectants to PTH(1-11) yielded the expected dose-response curve with half maximal stimulation at ˜200 nM.
as §1, with “reader. The maximal luminescence response (observed 12-16 min after ligand addition) was used to construct dose-response data sets (Table 4, FIGS. 22A to 22E).” for “reader.”
as §2
as §3, with “While there is no structural information for any VHH bound to PTHR1, a mode of interaction was envisioned between the receptor and VHH-PTH conjugates like that depicted in FIG. 12—Panel c. The” for “The”

A further assay relates to Mice (CD1 female). The experiment in a line: Calcemic response: blood ionized calcium in mice after subcutaneous injection. It counts as in vivo, mouse. The settings on record: 35 nmol/kg subcutaneous, n=4. The procedure:
Animal experiments and measurement of in vivo response. Mice (CD1 female, age 11 weeks) were treated in accordance with the ethical guidelines adopted by Massachusetts General Hospital. […] Peptides and conjugates were administered at doses that allowed for differentiation between compounds with differing levels of in vivo activity^27. Statistical analyses were performed assuming Gaussian distribution of data. Mice (n=4 per compound) were injected subcutaneously with vehicle (10 mM citric acid/150 mM NaCl/0.05% Tween-80, pH 5.0) or vehicle containing PTH or conjugate at a dose of 35 nmol/kg body weight. […] Blood was withdrawn just before injection (t=0) or at times thereafter. Tail vein blood was collected and immediately analyzed. Blood Ca^2+ concentration was measured with a Siemens RapidLab 348 Ca2+/pH analyzer.

The target in assay [2] is T3, PTHR2. The experiment in a line: Flow cytometry staining by VHH-Alexafluor647 of HEK293 cells expressing PTHR2. Type of assay: binding. To be noted: 100 nM VHH. The procedure:
Flow cytometry. Suspensions of cells in PBS were stained for 1 hour on ice in the presence of indicated concentrations of VHH probes functionalized with Alexafluor647. Cells were pelleted by centrifugation and washed with PBS prior to analysis by flow cytometry (BD Accuri C6). Gating was performed on forward scatter/side scatter profiles to analyze intact cells. Data was analyzed using FlowJo version 7.6. The median fluorescent intensity (MFI) of stained cells was used to generate VHH binding dose response curves (FIG. 20).

Where [3] appears, read: maximal cAMP response, normalized.
The mark [4] stands for this setting: mean ± SD, Inactive = response <5% of maximal.

T3 sequence (P49190 25-550): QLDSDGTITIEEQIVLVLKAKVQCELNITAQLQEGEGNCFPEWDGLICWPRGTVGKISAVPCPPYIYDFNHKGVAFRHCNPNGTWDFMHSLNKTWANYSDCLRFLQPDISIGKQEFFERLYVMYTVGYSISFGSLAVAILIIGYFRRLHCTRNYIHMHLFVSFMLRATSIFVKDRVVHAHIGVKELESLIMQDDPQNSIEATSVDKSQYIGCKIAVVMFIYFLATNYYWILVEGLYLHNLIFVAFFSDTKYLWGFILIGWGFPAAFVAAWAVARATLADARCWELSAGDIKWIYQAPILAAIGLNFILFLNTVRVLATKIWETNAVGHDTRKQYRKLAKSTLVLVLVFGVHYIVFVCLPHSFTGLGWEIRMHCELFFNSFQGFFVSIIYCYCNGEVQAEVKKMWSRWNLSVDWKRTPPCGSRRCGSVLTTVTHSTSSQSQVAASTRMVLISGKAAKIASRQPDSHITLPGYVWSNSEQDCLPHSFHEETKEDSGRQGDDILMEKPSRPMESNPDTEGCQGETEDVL

As for `CC[C@H](C)[C@H](NC(=O)[C@H](CCC(=O)O)NC(=O)C(C)(C)NC(=O)[C@@H](NC(=O)[C@H](C)N)C(C)C)C(=O)N[C@@H](CCC(N)=O)C(=O)N[C@@H](CC(C)C)C(=O)N[C@@H](CCSC)C(=O)N[C@@H](Cc1c[nH]cn1)C(=O)N[C@@H](CCC(N)=O)C(=O)N[C@@H](CCCNC(=N)N)C(=O)N[C@@H](C)C(=O)N[C@@H](CCCCN)C(=O)N[C@@H](Cc1c[nH]c2ccccc12)C(=O)N[C@@H](CS)C(N)=O` [PTH(1-14)] (H-AV[Aib]EIQLMHQRAKWC-NH2), on PTHR16E (setting [3]), the “Max (normalized ± SD), hPTHR16E” value worked out at 1.06 ± 0.12. Moreover, the “activation of wild-type human PTHR1 (in words)” value at human PTHR1 is “activated”. On human PTHR1 (setting [3]), the “Max (normalized ± SD), hPTHR1” value was found to be 1.01 ± 0.07. Also, the EC50 at human PTHR1 (mean ± SD, Inactive = response <5% of maximal response at that concentration, read-out: EC50, cAMP induction, hPTHR1) came to 4.3 ± 2 nM; at PTHR2 [1] (mean ± SD, read-out: EC50, cAMP induction, hPTHR2), 924 ± 328 nM; with PTHR1YFPΔECD (mean ± SD, Inactive = response <5% of maximal, read-out: EC50, cAMP induction, hPTHR1YFPΔECD), 1.1 ± 0.9 nM; with PTHR1GFP (mean ± SD, Inactive = response <5% of maximal, read-out: EC50, cAMP induction, hPTHR1GFP) it was 2.3 ± 1.2 nM. In addition, the “activation of human PTHR2 (in words)” value at PTHR2 [1] is reported as “activated”. Further, the “Max (normalized ± SD), hPTHR2” value at PTHR2 [1] (setting [3]) stood at 1.14 ± 0.28. In addition, the “Max (normalized ± SD), hPTHR1YFPΔECD” value in the assay on PTHR1YFPΔECD (setting [3]) came to 0.96 ± 0.04. Also, the “Max (normalized ± SD), hPTHR1GFP” value in the assay on PTHR1GFP (setting [3]) is 1.09 ± 0.03.

“M-PTH(1-14): UVUEIQLMHQXAKW (SEQ ID NO: 90) where U is Aib and X is homoarginine ([Aib]V[Aib]EIQLMHQ[hArg]AKW; not fully specified (C-terminus))”: the “blood ionized calcium response” value in the assay with Mice (CD1 female) was “little if any activity”.

For TIP 39, the “activation of human PTHR2 (in words)” value on PTHR2 [1] is “activated”.

Regarding “modified N-terminal PTH fragment with Aib3, amide; probably AV(Aib)EIQLMH (SEQ ID NO: 86) [PTH(1-9)]”, at PTHR16E (setting [4]), the “EC50, cAMP induction, PTHR16E” value is “Inactive at 10,000 nM”. The “EC50, cAMP induction, hPTHR1” value on human PTHR1 (mean ± SD, Inactive = response <5% of maximal response at that concentration) is “Inactive at 10,000 nM”. For the same molecule, the “activation of PTHR1 with ECD replaced by fluorescent protein (in words)” value in the assay with PTHR1YFPΔECD was “inactive alone”. Further, the “EC50, cAMP induction, hPTHR1YFPΔECD” value in the assay with PTHR1YFPΔECD (setting [4]) is “Inactive at 10,000 nM”. Also, the “EC50, cAMP induction, hPTHR1GFP” value in the assay with PTHR1GFP (setting [4]) is on record as “Inactive at 10,000 nM”.

B1: VHH6E: nanobody that recognizes a 14-mer peptide from UBC6e (…), SEQ ID NO: 71 (protein)
VHH: QVQLQESGGGLVQPGGSLRLSCAASGFVFENSAMAWYRQAPGKERELIAVIGTTFIKLAESVKGRFTISRDNAKSTVYLQMNNLKPEDTAVYYCSKSGAYWGQGTQVTVSSLPETGG
On to B1, for which, in the assay with PTHR2 [2], the “binding to PTHR2 (in words)” value is listed as “lack of binding”.

B2: VHH05-PTH(1-34): PTH(1-34)-Cys conjugated to nanobody VHH05 (conjugate)
VHH: QVQLQESGGGLVQPGGSLRLSCAASGFVFENSAMAWYRQAPGKERELIAVIGTTFIKLAESVKGRFTISRDNAKSTVYLQMNNLKPEDTAVYYCSKSGAYWGQGTQVTVSS
peptide: SVSEIQLMHNLGKHLNSMERVEWLRKKLQDVHNFC
As for B2, the “activation of wild-type human PTHR1 (in words)” value with human PTHR1 was “activates”.

What is called EC50 is the concentration needed to bring the measured effect to its halfway point.

These data come from patent US11878063B2, “Engineered ligands and uses thereof” (Children's Medical Center Corporation, priority 2019, dated 2024).
